Tests used:
[1] = test system: MCF-7-TD5 (breast cancer); assay: Sub-cutaneous xenograft breast cancer model; format: in vivo, mice
Description: (§1) Three types of results were obtained with in vivo anti-tumor pharmacology: 1) the cumulative toxicity of chemotherapeutic administrations through recording the weights of the tumor-bearing mice during treatment, 2) the actual anti-tumor effect exerted at tumor growth level. If the tumor models are grafted subcutaneously (s.c.), tumor size is measured three times a week by means of a caliper and expressed as an area (mm^2) by multiplying together the two largest perpendicular diameters, and 3) the gain in survival for the animals treated, which is evaluated by means of the T/C index. This index is the ratio between the median survival time of the group of treated animals (T) and that of the control group. The drug is considered to be active if the T/C value is above 130% (P<0.05), and toxic for a value lower than 70%.
(§2) The antitumoral activity of compound B was evaluated in different xenografted models: sub-cutanous model: MCF-7-TD5 (breast cancer) and C32 (melanoma cancer) and orthotopic model: A549 (lung cancer).
The MCF-7-TD5 model described herein is a […] form of MCF-7 transfected with v-Ha-ras oncogene and with a neomycin-resistance gene. Compound B was assayed at MTD/8 (10 mg/kg) and MTD/16 (5 mg/kg) five times a week.
After s.c. injection of MCF-7-TD5 into untreated female nu/nu mice, the MCF-7 TD5 produced tumors after latency periods of 7 to 18 weeks. […] No oestradiol was used during the experiments described in this example.

[2] = test system: Capan-2 orthotopic xenograft; assay: Orthotopic pancreatic cancer model; format: in vivo, nude mice
Description: as §1
(§3) In addition to the xenografted models of Example 6, the antitumoral activity of compound B was evaluated in orthotopic xenografted models PC3 (Prostate) and Capan2 (Pancreas).
Compound B was further evaluated on in vivo orthotopic Capan-2 pancreatic cancer model by measurement of T/C index, as described in Example 6 of the specification.

[3] = test system: A549 (lung cancer); assay: Orthotopic lung cancer model; format: in vivo, mice; settings: for T/C index: A549 orthotopic, three times a week
Description: as §1, §2
Lung cancer is the leading cause of cancer deaths worldwide. Most patients die of progressive metastatic disease despite aggressive local and systemic therapies. The pathogenesis of lung cancer remains highly elusive due to its aggressive biologic nature and considerable heterogeneity, as compared to other cancers. Orthotopic lung cancer models are described in the literature using endobronchial, intrathoracic or intravenous injection of tumor cell suspensions and by surgical implantation of fresh tumor tissue. The tumor cells are directly injected into the lung of nude mice. The advantages of orthotopic models include improved tumor take and enhanced invasive and metastatic properties.
Compound B was assayed at DMT/2 (40 mg/kg), DMT/4 (20 mg/kg) and DMT/8 (10 mg/kg) three times a week. […] These values are statistically significant.
FIG. 21 represents the death rate of nine mice in each of the control and test groups during the experiment. Kaplan-Meier statistical analysis was used. The statistics value underlines the general fit of the test control in comparison with the general fit of the control group. […] The level significance was p<0.05.

[4] = test system: PC-3 orthotopic xenograft; assay: Orthotopic refractory prostate cancer model; format: in vivo, nude mice; settings: from 7th day post-graft
Description: as §1, §3
Compound B was evaluated in vivo on highly invasive orthotopic PC-3 refractory prostate cancer model by measurement of T/C index, as described in Example 6 of the specification.

[5] = test system: J82 human cancer cells; assay: Cell cycle kinetics by flow cytometry (propidium iodide); format: cell-based; design: key to Effect on cell cycle kinetics, G0/G1 / Effect on cell cycle kinetics, S / Effect on cell cycle kinetics, G2/M: n.s. means no significant; ** means highly significant; *** very highly significant
Description: (§4) Cell lines were seeded in flasks (25 cm^2 area) containing 7 ml of culture medium. After 48 hours incubation at 37° C. the cell culture medium was replaced by a fresh medium in which the substance to be tested had been dissolved at the different concentrations required. Uscharin and 2″ oxo-voruscharin were tested at concentrations, which kill 50% and 30% of the cell population, represented by the IC50 and IC30 values, respectively. After 24 or 72 hours of treatment the cells were harvested in suspension, washed in Phosphate Buffer Saline (PBS) at 4° C. and permeabilized with 70% ethanol (at 4° C.) overnight at −20° C. The cells were then washed with PBS and incubated with propidium iodide solution (80 μg/ml) for 30 minutes at 37° C. and afterward at 4° C. overnight. Ribonuclease A (3% V/V) was added to the PI solution to break doubled-stranded RNA. The portrait of the cell cycle was established for each sample. Software incorporated into the flow cytometer was used to define precisely the percentage of cells in the different cell cycle phases. Each cell cycle phase was reported in terms of peak surface and calculated as a percentage. The surface of the entire cell cycle was 100%. Each experiment was carried out 3 times. The mean percentage of each different phase and the standard error of the related mean were calculated. Each cell cycle phase of a given condition was compared with the same cell cycle phase of control. The non-treated cells constituted control.
(§5) Uscharin and 2″ oxo-voruscharin are highly toxic to human tumor cell lines. The concentrations used in the flow cytometry experiments were chosen in accordance with the MTT results (example 2). Three human cancer cell lines, Hs683, J82, and HCT-15 were tested and doses that killed 30 and 50 percent of the cells were applied to investigate whether uscharin and 2″ oxo-voruscharin promoted an accumulation in one of the cell cycle phases when the cell cultures were treated for 24 or 72 hours with increasing concentrations of the compounds. The IC50 and IC30 values for uscharin and 2″ oxo-voruscharin corresponding to the three tested cell lines are represented in Table E.

[6] = test system: Hs683 human cancer cells; assay: as above; format: cell-based; design: key to Effect on cell cycle kinetics, G0/G1 / Effect on cell cycle kinetics, S / Effect on cell cycle kinetics, G2/M: n.s. means no significant; ** means highly significant; *** very highly significant
Description: as §4, §5

For `CC1CC2(NC(=O)CS2)C2(O)OC3CC4(CO)C(CCC5C4CCC4(C)C(C6=CC(=O)OC6)CCC54O)CC3OC2O1` (centres unmarked) [Compound B], the “survival periods of MCF-7-TD5 tumor bearing mice” value ([1]; 60 administrations of 10 mg/kg and 5 mg/kg) was “not sufficient to significantly increase the survival periods”, the MCF-7-TD5 tumor growth ([1]; 60 administrations of 10 mg/kg and 5 mg/kg, five times a week) was “significantly decreased MCF-7-TD5 tumor growth” and the “weight of MCF-7-TD5 tumor bearing mice (toxic side effects)” value ([1]; constant administrations, 10 mg/kg and 5 mg/kg) was “did not lose any significant weight”. For the same compound, the T/C value ([2]; i.p. DMT/4 (20 mg/kg), 3ix5w, from 21st day post-graft) was 129%, the T/C value ([2]; i.p. DMT/8 (10 mg/kb), 5ix8w, from 14th day post-graft) was 127% and the T/C index ([3]; 3×40 mg/kg) was 124%. For the same compound, the T/C index ([3]; 7×20 mg/kg) was 152%, the T/C index ([3]; 10×10 mg/kg) was 186% and the “weight of A549-tumor bearing mice (toxic side effects)” value ([3]; constant administrations, 40, 20 and 10 mg/kg) was “did not lose any significant weight”. For the same compound, the “weight of A549-tumor bearing mice” value ([3]; first week of administration at 40 mg/kg) was “significant loss of weight”, the T/C value ([4]; i.p. DMT/4 (20 mg/kg), 5ix6w) was 177% and the T/C value ([4]; per os DMT/2 (40 mg/kg), 5dx6w) was 132%.
`CC1CC2(NC(=O)CS2)C2(O)OC3CC4(C=O)C(CCC5C4CCC4(C)C(C6=CC(=O)OC6)CCC54O)CC3OC2O1` (centres unmarked) [2″oxo-voruscharin, 2″ oxo-voruscharin] was tested, and the “Effect on cell cycle kinetics, G0/G1” value ([5]; J82, 24 h) was “n.s”, the “Effect on cell cycle kinetics, G2/M” value ([5]; J82, 24 h) was “n.s” and the “Effect on cell cycle kinetics, S” value ([5]; J82, 24 h) was “n.s”. The “Effect on cell cycle kinetics, G0/G1” value ([5]; J82, 72 h) was “n.s”, the “Effect on cell cycle kinetics, G2/M” value ([5]; J82, 72 h) was “n.s” and the “Effect on cell cycle kinetics, S” value ([5]; J82, 72 h) was “**”. For the same compound, the “cell cycle, S-population” value ([5]; J82, only after 72 hours of treatment at both concentrations tested) was “increase of S-population”, the “cell cycle, G2/M phase” value ([6]; Hs683, 8.3×10^−9 M after 24 hours and both concentrations for 72 hours, significant) was “accumulation in G2/M phase” and the “Effect on cell cycle kinetics, G0/G1” value ([6]; Hs683, 24 h) was “n.s”. The “Effect on cell cycle kinetics, G2/M” value ([6]; Hs683, 24 h) was “***”, the “Effect on cell cycle kinetics, S” value ([6]; Hs683, 24 h) was “n.s” and the “Effect on cell cycle kinetics, G0/G1” value ([6]; Hs683, 72 h) was “n.s”. For the same compound, the “Effect on cell cycle kinetics, G2/M” value ([6]; Hs683, 72 h) was “**” and the “Effect on cell cycle kinetics, S” value ([6]; Hs683, 72 h) was “n.s”.

From patent US7981875B2, “2″ oxo-voruscharin and derivatives thereof” (priority 2002, dated 2011)
